# From paper PMC7095208 (Nature, 2014)
# Columns and labels:
# [1] = tested on: RAVV; conditions: mouse, in vivo
# [2] = tested on: EBOV; conditions: mouse, in vivo
structure (smiles),measurement,setting,value
"Nc1ncnc2c([C@@H]3N[C@H](CO)[C@@H](O)[C@H]3O)c[nH]c12 [BCX4430, (2S,3S,4R,5R)-2-(4-amino-5H-pyrrolo[3,2-d]pyrimidin-7-yl)-5-(hydroxymethyl)pyrrolidine-3,4-diol]",protection,[1],75–100%
same,protection (survival vs vehicle),[1],significant protection
same,protection against lethal EBOV challenge,[2],protected
